Tests used:
physchem [1] = settings: octanol/water
physchem [2] = assay: physchem
[3] = octanol/water
[4] = octanol/water; remark: listed apart in the source
[5] = octanol/water; remark: listed apart in the source
[6] = octanol/water; remark: listed apart in the source
[7] = octanol/water; remark: listed apart in the source

Structure (SMILES) | logP (physchem [1]) | further results
O=C(O)COc1ccc(F)cc1 | 1.41 | –
NS(=O)(=O)c1ccc(Cl)cc1 [P-CHLOROBENZENESULFONAMIDE] | 0.84 | –
COC(N)=O [METHYL CARBAMATE] | – | logP (physchem [2]; oil/water): -1.6
CNC(=O)Oc1ccc([N+](=O)[O-])cc1 [4-NITROPHENYL METHYLCARBAMATE] | 1.46 | –
NS(=O)(=O)c1cccc(Cl)c1 | 1.29 | –
CNC(=O)Oc1cccc(C#N)c1 | 0.98 | –
NS(=O)(=O)c1ccc([N+](=O)[O-])c(C(F)(F)F)c1 | 1.73 | –
CCOc1ccccc1OC(=O)NC | 1.24 | –
NS(=O)(=O)c1ccc(Br)cc1 | 1.36 | –
CC(=O)OCC(COC(C)=O)OC(C)=O [TRIACETIN] | – | logP (physchem [2]; oil/water): -0.36
CNC(=O)Oc1cccc(C)c1 [METOLCARB] | 1.7 | –
CCOc1ccccc1 [PHENETOLE] | 2.51 | pKHB: 0.22
CCCCCC(=O)O [HEXANOATE] | – | logP [3]: 0.83
CNC(=O)Oc1cccc(C(C)=O)c1 | 0.9 | –
CNC(=O)Oc1ccccc1I | 1.96 | –
CCC(=O)O [PROPIONIC ACID] | – | logP [3]: -0.8
Brc1ccccc1 [BROMOBENZENE] | – | logP [4]: 3.08; pKHB: -0.84
OCCO [ETHYLENE GLYCOL] | – | logP [5]: -2.28; logP (physchem [2]; octanol/water): -3.31
CNC(=O)Oc1ccc(C=O)cc1 | 0.99 | –
Oc1ccccc1 [PHENOL] | – | logP [6]: 1.3; logP [7]: 0.36; logP [4]: -0.89
CNC(=O)Oc1cccc(C=O)c1 | 0.92 | –
CNC(=O)Oc1cccc(OC)c1 | 1.3 | –
COc1ccc(S(N)(=O)=O)cc1 | 0.47 | –
Cc1cccc(S(N)(=O)=O)c1 | 0.85 | –
Nc1ccccc1 [ANILINE] | – | logP [4]: -0.05

Structure (SMILES) | logP (physchem [1]) | further results
CC(=O)Nc1cccc(OCC(=O)O)c1 | 0.47 | –
O=C(O)COc1cccc(C(F)(F)F)c1 | 2.33 | –
OCCCCCCO [1,6-HEXANEDIOL] | – | logP (physchem [2]; oil/water): -2.17
CCOC(C)=O [ETHYL ACETATE] | – | logP (physchem [2]; oil/water): 0.4
OCCCCO [1,4-BUTANEDIOL] | – | logP [5]: -1.72; logP (physchem [2]; octanol/water): -2.68
O=C(O)COc1cccc([N+](=O)[O-])c1 | 1.37 | –
CNC(=O)Oc1ccc(C(C)C)cc1 | 2.8 | –
CCCCC(=O)O [VALERIC ACID] | – | logP (physchem [2]; oil/water): 0.48
CCC(N)=O [PROPIONAMIDE] | – | logP (physchem [2]; oil/water): -2.44
CC(=O)c1ccccc1 [ACETOPHENONE] | – | logP [4]: 1.14; pKHB: 1.13
CC(=O)c1ccc(S(N)(=O)=O)cc1 | 0.2 | –
CNC(=O)Oc1ccc(C(C)=O)cc1 | 1.01 | –
CNC(=O)Oc1ccccc1OC | 0.81 | –
Cc1ccc(OCC(=O)O)cc1 | 1.78 | –
CCOCC [ETHER] | – | logP (physchem [2]; oil/water): 0.38
CCc1cccc(OCC(=O)O)c1 | 2.23 | –
CC(O)CO (stereo not drawn) [PROPYLENE GLYCOL] | – | logP (physchem [2]; oil/water): -2.77
O=[N+]([O-])c1ccccc1 [NITROBENZENE] | – | logP [7]: 2.93; logP [4]: 1.49
CN(C)C(=O)c1ccccc1 | 0.62 | pKHB: 2.22
CNC(=O)Oc1cccc(Cl)c1 | 2.03 | –
Clc1ccccc1 [CHLOROBENZENE] | – | logP [4]: 2.98; pKHB: -0.8
NS(=O)(=O)c1cccc([N+](=O)[O-])c1 | 0.55 | –
O=C(O)COc1ccc(O)cc1 | 0.65 | –
CNC(=O)Oc1cccc(Br)c1 | 2.25 | –
Oc1cccc(Br)c1 | 2.63 | –

Structure (SMILES) | logP (physchem [1]) | further results
CN(C)Cc1ccccc1 | 1.98 | logP [4]: 1.44; pKHB: 1.56
O=C1CCC(=O)N1 [SUCCINIMIDE] | – | logP (physchem [2]; oil/water): -2.31
O=Cc1ccccc1 [BENZALDEHYDE] | – | logP [4]: 1.11; pKHB: 0.8
COc1cccc(OCC(=O)O)c1 | 1.38 | –
CS(=O)(=O)c1cccc(OCC(=O)O)c1 | 0 | –
CC(C)CC(N)=O [ISOVALERAMIDE] | – | logP (physchem [2]; oil/water): -1.64
CNC(=O)Oc1ccccc1C#N | 0.86 | –
CC1OC(C)OC(C)O1 (stereo not drawn) | – | logP (physchem [2]; oil/water): 0.28
CC(=O)N(C)c1ccccc1 | 1.12 | logP [4]: -0.4; pKHB: 2
N#Cc1ccccc1 [BENZONITRILE] | 1.56 | logP [4]: 0.96; pKHB: 0.79
OCc1ccccc1 [BENZYL ALCOHOL] | – | logP [4]: -0.76
CNC(=O)Oc1cccc(C(C)C)c1 | 2.63 | –
Cc1ccccc1 [TOLUENE] | – | pKHB: -0.29
CC(O)C(C)O (stereo not drawn) | – | logP (physchem [2]; oil/water): -2.47
C[C@H](O)CCO [1,3-BUTANEDIOL] | – | logP (physchem [2]; oil/water): -2.37
CN(C)c1ccccc1 | – | logP [4]: 2.38; pKHB: 0.45
O=C(O)COc1ccccc1 | 1.26 | –
COc1ccc(O)cc1 [MEQUINOL] | 1.34 | –
CCOC(N)=O | – | logP (physchem [2]; oil/water): -1.13
CNc1ccc(S(N)(=O)=O)cc1 | 0.08 | –
O=C(O)Cc1ccccc1 [PHENYLACETIC ACID] | 1.41 | –
COc1cccc(O)c1 [1-hydroxy-3-methoxybenzene] | 1.58 | –
O=C(O)COc1cccc(C(=O)O)c1 | 1.11 | –
C1N2CN3CN1CN(C2)C3 [METHENAMINE] | – | logP (physchem [2]; oil/water): -3.68
CCCCCO [1-PENTANOL] | – | logP [3]: 0.36

Structure (SMILES) | logP (physchem [1]) | further results
COc1ccccc1 [ANISOLE] | – | pKHB: 0.02
Oc1cccc(I)c1 | 2.93 | –
Cc1cccc(O)c1 [METACRESOL] | 2.02 | –
Oc1ccc(I)cc1 | 2.91 | –
Oc1cccc(F)c1 | 1.93 | –
Cc1ccc(S(N)(=O)=O)cc1 [P-TOLUENESULFONAMIDE] | 0.82 | –
CCOc1ccc(OC(=O)NC)cc1 | 1.64 | –
CNC(=O)Oc1ccc(I)cc1 | 2.46 | –
O=C(O)COc1cccc(Cl)c1 | 2.02 | –
CS(=O)(=O)c1ccccc1 [METHYLPHENYLSULFONE] | 0.47 | pKHB: 1.05
CCc1ccccc1 [ETHYLBENZENE] | – | pKHB: -0.34
COP(=O)(OC)Oc1ccccc1 | 1.22 | pKHB: 2.21
CNC(=O)Oc1ccccc1[N+](=O)[O-] | 1.02 | –
NCc1ccccc1 [BENZYLAMINE] | – | logP [4]: -0.15
CNC(=O)Oc1cccc([N+](=O)[O-])c1 | 1.39 | –
CC(C)=O [ACETONE] | – | logP (physchem [2]; oil/water): -0.7
CNC(=O)Oc1ccc(C#N)cc1 [4-CYANOPHENYL METHYLCARBAMATE] | 0.95 | –
CCCC(N)=O [BUTYRAMIDE] | – | logP (physchem [2]; oil/water): -2.02
CNC(=O)Oc1cccc(N(C)C)c1 | 1.43 | –
CNC(=O)Oc1ccccc1OC(C)C [PROPOXUR] | 1.52 | –
N#Cc1ccc(S(N)(=O)=O)cc1 | 0.23 | –
NS(=O)(=O)c1ccc([N+](=O)[O-])cc1 | 0.64 | –
NS(=O)(=O)c1ccccc1 [BENZENESULFONAMIDE] | 0.31 | –

From ChEMBL document CHEMBL3244276, “Hydrogen-bonding parameter and its significance in quantitative structure--activity studies” (J Med Chem, 1977)
